Results reported in US8030282B2, “Motilide polymorphs” (priority 2006, dated 2011).
In brackets after ≈: the same amount, converted by molar mass.

Columns and labels:
[1] = Gravimetric vapor sorption (GVS) moisture sorption isotherm; assay type: physicochemical; settings: for weight increase / mass uptake between 0 and 90% RH / mass gain/loss upon multiple sorption and desorption cycles: GVS, 25° C.; for weight increase / mass uptake between 0 and 90% RH: 0 to 90% RH; for XRPD re-analysis under ambient conditions after GVS: after GVS weight uptake/loss
Description: GVS data was also collected by Pharmorphix, Ltd. All samples were run on a Hiden IGASorp moisture sorption analyzer running CFRSorp software. Sample sizes were typically 10 mg. A moisture adsorption-desorption isotherm was performed as outlined below, with two scans giving one complete cycle. All samples were loaded and unloaded at typical ambient (room) humidity and temperature (40% RH, 25° C.). All samples were analyzed by XRPD after GVS analysis. The standard isotherm was performed at 25° C. at 10% RH intervals over a 0 to 90% RH range. [table]

[2] = Form stability under aqueous conditions / during solubility analysis; assay type: physicochemical
[3] = molecular target: motilin receptor (Homo sapiens, UniProt O43193); settings: cited from earlier work
Sequence of motilin receptor (O43193 whole entry, species assumed): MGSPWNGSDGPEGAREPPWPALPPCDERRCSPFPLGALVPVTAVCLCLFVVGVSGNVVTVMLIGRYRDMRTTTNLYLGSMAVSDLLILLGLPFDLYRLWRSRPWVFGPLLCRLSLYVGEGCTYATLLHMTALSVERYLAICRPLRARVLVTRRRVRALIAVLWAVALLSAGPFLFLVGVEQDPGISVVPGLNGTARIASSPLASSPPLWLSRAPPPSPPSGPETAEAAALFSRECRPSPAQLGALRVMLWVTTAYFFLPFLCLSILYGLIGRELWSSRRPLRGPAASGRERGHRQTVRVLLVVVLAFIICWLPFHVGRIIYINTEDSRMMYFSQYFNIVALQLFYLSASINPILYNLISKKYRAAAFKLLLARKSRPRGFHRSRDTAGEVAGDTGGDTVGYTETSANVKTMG

[4] = Retention of crystallinity on heating or vacuum drying (XRPD); assay type: physicochemical
Excerpt: XRPD patterns were collected on a Bruker AXS C2 GADDS diffractometer using Cu Kα radiation (40 kV, 40 mA), automated XYZ stage, laser video microscope for auto-sample positioning and a HiStar 2-dimensional area detector. X-ray optics consisted of a single Göbel multilayer mirror coupled with a pinhole collimator of 0.3 mm.
The beam divergence, i.e. the effective size of the X-ray beam on the sample, was approximately 4 mm. A θ-θ continuous scan mode was employed with a sample-detector distance of 20 cm which gave an effective 2θ range of 3.2° to 29.7°. Typically the sample would be exposed to the X-ray beam for 120 seconds.

[5] = Aqueous solubility of polymorphs of Compound Ia; assay type: physicochemical
[6] = Storage stability at 40° C. and 75% RH (XRPD); assay type: physicochemical; settings: for change on storage at 40° C. and 75% RH: one week

weight increase / mass uptake between 0 and 90% RH [1] [%] | mass gain/loss upon multiple sorption and desorption cycles [1] | XRPD re-analysis under ambient conditions after GVS [1] | SMILES | polymorph change under aqueous conditions / during solubility analysis [2] | further results
8.5 | changed drastically |  | CC[C@H]1OC(=O)[C@H](C)[C@@H](O[C@H]2C[C@@](C)(OC)[C@@H](O)[C@H](C)O2)[C@H](C)[C@@H](O[C@@H]2O[C@H](C)C[C@H](N(C)C(C)C)[C@H]2O)[C@](C)(O)C[C@@H](C)[C@H](OCC(=O)NC)[C@H](C)[C@@H](O)[C@]1(C)O [Polymorph I] | converted to a second polymorph, referred to as Polymorph II | 
 |  |  | CC[C@H]1OC(=O)[C@H](C)[C@@H](O[C@H]2C[C@@](C)(OC)[C@@H](O)[C@H](C)O2)[C@H](C)[C@@H](O[C@@H]2O[C@H](C)C[C@H](N(C)C)[C@H]2O)[C@](C)(O)C[C@@H](C)C(=O)[C@H](C)[C@@H](O)[C@]1(C)O [erythromycin A (1), Erythromycin A] |  | motilin agonist activity [3]: motilin agonist activity
 | changed drastically | loss of crystallinity | CC[C@H]1OC(=O)[C@H](C)[C@@H](O[C@H]2C[C@@](C)(OC)[C@@H](O)[C@H](C)O2)[C@H](C)[C@@H](O[C@@H]2O[C@H](C)C[C@H](N(C)C(C)C)[C@H]2O)[C@](C)(O)C[C@@H](C)[C@H](OCC(=O)NC)[C@H](C)[C@@H](O)[C@]1(C)O [Polymorph II] |  | weight loss when kept at between 5 and 0% RH ([1]; between 5 and 0% RH): 4%; crystallinity during vacuum drying ([4]; vacuum drying at 30° C. for 72 h): loses crystallinity
3 | changed drastically | loss of crystallinity | CC[C@H]1OC(=O)[C@H](C)[C@@H](O[C@H]2C[C@@](C)(OC)[C@@H](O)[C@H](C)O2)[C@H](C)[C@@H](O[C@@H]2O[C@H](C)C[C@H](N(C)C(C)C)[C@H]2O)[C@](C)(O)C[C@@H](C)[C@H](OCC(=O)NC)[C@H](C)[C@@H](O)[C@]1(C)O [Polymorph VII] | converted to a mixture of Polymorphs II and IV | aqueous solubility [5]: 750 µg/mL (≈ 898 µM); weight change by GVS analysis [1]: constant weight loss; change on storage at 40° C. and 75% RH [6]: lost crystallinity
 |  |  | CC[C@H]1OC(=O)[C@H](C)[C@@H](O[C@H]2C[C@@](C)(OC)[C@@H](O)[C@H](C)O2)[C@H](C)[C@@H](O[C@@H]2O[C@H](C)C[C@H](N(C)C(C)C)[C@H]2O)[C@](C)(O)C[C@@H](C)[C@H](OCC(=O)NC)[C@H](C)[C@@H](O)[C@]1(C)O [Polymorph V] | converted to Polymorph II | aqueous solubility [5]: 720 µg/mL (≈ 862 µM); change on storage at 40° C. and 75% RH [6]: decreased in crystallinity
3.5 | very uniform | did not lead to a change in XRPD pattern | CC[C@H]1OC(=O)[C@H](C)[C@@H](O[C@H]2C[C@@](C)(OC)[C@@H](O)[C@H](C)O2)[C@H](C)[C@@H](O[C@@H]2O[C@H](C)C[C@H](N(C)C(C)C)[C@H]2O)[C@](C)(O)C[C@@H](C)[C@H](OCC(=O)NC)[C@H](C)[C@@H](O)[C@]1(C)O [Polymorph IV] | Neither storage at 40 °C at 75% R^H for 10 weeks nor handling during solubility analysis produced any significant changes | solubility ([5]; water): 770 µg/mL (≈ 922 µM); XRPD pattern on heating ([4]; heating up to the melt): no change in XRPD pattern; change on storage at 40° C. at 75% RH ([6]; 10 weeks): Neither storage at 40 °C at 75% R^H for 10 weeks nor handling during solubility analysis produced any significant changes
 | changed drastically |  | CC[C@H]1OC(=O)[C@H](C)[C@@H](O[C@H]2C[C@@](C)(OC)[C@@H](O)[C@H](C)O2)[C@H](C)[C@@H](O[C@@H]2O[C@H](C)C[C@H](N(C)C(C)C)[C@H]2O)[C@](C)(O)C[C@@H](C)[C@H](OCC(=O)NC)[C@H](C)[C@@H](O)[C@]1(C)O [Polymorph VI] |  | change on storage at 40° C. at 75% RH ([6]; duration not stated): converted to Polymorph IV
